Reference: a melting point compilation (Tetko et al.; mined from patent text by program, amines drawn as free bases though some values may be those of a salt)
Residues, ends and D or L forms follow the SMILES beside them.

Compound	melting point
CCSCc1cnn(-c2c(Cl)cc(C(F)(F)F)cc2Cl)n1	53 to 54 °C
O=C1C(=O)N(c2ccc(Cl)c(Cl)c2)C(=O)N1c1cccc(C(F)(F)F)c1	116 °C
O=Cc1cc2n(c1)CCc1ccccc1C2=O	135 to 136 °C
Cc1nc(N)c2nc(C)n(CCCN)c2c1C	192 °C
CCC(CC)c1ccc(Cl)c2nc3n(c12)CCN3C(=O)c1c(C)cc(C)cc1C	234 to 236 °C
CCOP(=O)(OCC)c1nc(Nc2ccccc2)nc(N2CCCC2)n1	150 to 151 °C
Cc1ccc(C(=O)Nc2ccc(CCc3ccc(O)c(O)c3)cc2)c(O)c1	201 to 202 °C
CCC1=C(O)C(C(C)=O)C(=O)OC1=O (stereo unspecified)	212 °C
OC1(C#Cc2cccc(Cl)c2)CCNC1 (stereo unspecified)	153 to 160 °C
CC(C)(C)c1ccc(-c2snnc2S)cc1	> 150 °C
N#Cc1nn(-c2c(Cl)cc(C(F)(F)F)cc2Cl)cc1OC(F)(F)C(F)Cl (racemic)	99 to 101 °C
CC(C)c1nn(-c2ccc3ccccc3n2)c(-c2ccc(F)cc2)c1Br	110 to 114 °C
CCCCOCCOc1ccc(-c2ccc3c(c2)C=C(C(=O)Nc2ccc(SCc4n[nH]c(=O)n4CCC)cc2)CCN3CC(C)C)cc1	98 to 101 °C
COc1cc(OC)n2ncc(Br)c2n1	188 to 190 °C
CC(=O)C1Cc2ccc(O)c(O)c2C1=O (stereo unspecified)	159 to 160 °C
Cc1ccc(N2C(=O)C(O)=C(C(=O)c3cccc(Cl)c3)C2c2ccc(C(C)C)cc2)nn1 (stereo unspecified)	271 °C
O=C(Nc1ccc(C=C2c3ccccc3CCc3ccccc32)cc1)c1ccncc1	252 °C
O=c1c2ccc(O)cc2oc2c([N+](=O)[O-])ccc(Cl)c12	179 to 182 °C
Nc1ccnc(Cl)c1Br	146 °C
O=C(CC[C@H](NC(=O)OCc1ccccc1)C(=O)OCc1ccccc1)ON1C(=O)CCC1=O	104 to 106 °C
N#Cc1c(Cl)c(Cl)n(C#N)c1-c1ccc(Cl)c(Cl)c1	250 to 252 °C
Cc1cc(C)c2c(c1C)NC(C)(CCCC(C)CCCC(C)CCCC(C)C)CC2 (stereo unspecified)	72 to 73 °C
CNc1nc(-c2ccc(SC)cc2)nc(SC)c1C(=O)Nc1ccc(C)cc1	228 to 230 °C
COc1ccc(Nc2nc(C)c(-c3nc4ccccc4c(=O)n3-c3ccc(Cl)cc3)s2)cc1	> 275 °C
COc1ccc(-c2[nH]nc3c2C(=O)c2c(NC(=O)Cc4ccc(Cl)cc4Cl)cccc2-3)cc1	286 °C
CNS(=O)(=O)c1ccc(-c2cccc(-c3nc(C(C)C)[nH]c3-c3cccc(C)n3)c2)cc1	96 to 100 °C

Compound	melting point
COc1ccccc1N1CCN(CC(O)COc2ccc3cc(C(N)=O)oc3c2)CC1 (stereo unspecified)	152 to 154 °C
CCOC(=O)C1N=C(c2ccccc2)c2ccccc2NC1=O (stereo unspecified)	226 °C
Cc1nc2c(s1)C(=O)N(C(C)(C)C)C2=O	106 °C
O=C1Nc2cccc(Br)c2C12COc1cc3c(cc12)OCCO3 (stereo unspecified)	> 250 °C
CN(C(=O)CCC#Cc1ccccn1)c1ccccc1	68 to 71 °C
O=C(O)[C@H](Cc1cccc(OCC(F)(F)F)c1)[C@@H](O)c1ccc(F)cc1 (racemic)	142 to 143 °C
N=C(NO)c1ccc(-c2ccc(-c3ccc(C(=N)NO)o3)o2)nc1	248 to 250 °C
COP(=O)(NC1C(=O)N2C(C(=O)OCc3ccc([N+](=O)[O-])cc3)=C(C=CN3CCCCC3)CSC12)OC (stereo unspecified)	220 to 221 °C
N#Cc1c(C(F)(F)F)oc2cc(O)ccc2c1=O	255 to 257 °C
COC(=O)c1nc(-c2nccs2)cc(NC(C)=O)c1Cl	187 to 188 °C
CCN(CC)c1cc(F)cc2nc3n(c12)CCCN3c1ccc(Cl)cc1Cl	142 to 145 °C
CN1CNC(=S)N(c2ccc(N(C)C)cc2)C1	173 to 175 °C
O=C(O)C1(c2cccs2)CC1	116 to 118 °C
Cc1ccc(-c2nc(Sc3ccc(Cl)cc3)cc(N3CCN(C)CC3)n2)cc1	104 to 105 °C
CCc1cc(-c2ccccc2OC)n2nc(Nc3ccc(N4CCN(C)CC4)cc3)ncc12	154 to 156 °C
CC(=O)Nc1nc2c(Oc3cc(-c4ccc(C(F)(F)F)cc4Br)ncn3)cccc2s1	260 °C
CCN1C(=O)CNCc2cc(OC)c(N)cc21	69 to 73 °C
CCCCc1nc(Cl)c(C=CC(=O)OCC)n1Cc1ccc(NC(=O)c2ccccc2C(=O)O)cc1	180 to 181 °C
O=c1n(C2CCOC2)cc(-c2ccncc2)n1-c1ccc(F)cc1 (stereo unspecified)	132 to 134 °C
COC(=O)C(Cc1ccccc1)NC(=O)C(CC(=O)O)NC(=O)C1CCCN1 (stereo not drawn) (H-Pro-Asp-Phe-OMe; configuration not given here)	238 to 242 °C
COC(=O)CCc1cc2cc(Cl)ccc2n1S(=O)(=O)c1ccc2ncsc2c1	134 to 138 °C
CC(C)(C)OC(=O)N1CCC(CCOS(C)(=O)=O)CC1	60 to 63 °C
O=C1O[C@@H]2C[C@@]1(O)c1cc(Cc3ccccc3)sc1[C@H]2O	116 to 118 °C
O=C(c1ccc(CCl)cc1)N1CCCCC1	106 to 108 °C
FC(F)(F)c1ccc(-c2ccc3[nH]c4c(ccc5cc[nH]c54)c3c2)cc1	> 250 °C
